Experimental data: patent US20220289679A1, “HETEROCYCLIC COMPOUND” (Takeda Pharmaceutical Company Limited, priority 2019, published 2022)

What follows are compounds tested against T1, human GCS (glucosylceramide synthase) (Homo sapiens, UniProt Q16739) (assay: Glucosylceramide Synthase (GCS) Assay). Settings: test compound 10 μM; microsome fraction of Expi293F cells expressing human GCS; 1.7 μM UDP-glucose, 3 μM C8 ceramide; room temperature 60 min; C8 glucosylceramide by Rapidfire MS/MS; read-out: GCS enzyme inhibitory rate at 10 μM (%).
T1 construct: made in house; host or cells: Expi293F cells (transient expression; microsome fraction)
T1 sequence (Q16739 1-394): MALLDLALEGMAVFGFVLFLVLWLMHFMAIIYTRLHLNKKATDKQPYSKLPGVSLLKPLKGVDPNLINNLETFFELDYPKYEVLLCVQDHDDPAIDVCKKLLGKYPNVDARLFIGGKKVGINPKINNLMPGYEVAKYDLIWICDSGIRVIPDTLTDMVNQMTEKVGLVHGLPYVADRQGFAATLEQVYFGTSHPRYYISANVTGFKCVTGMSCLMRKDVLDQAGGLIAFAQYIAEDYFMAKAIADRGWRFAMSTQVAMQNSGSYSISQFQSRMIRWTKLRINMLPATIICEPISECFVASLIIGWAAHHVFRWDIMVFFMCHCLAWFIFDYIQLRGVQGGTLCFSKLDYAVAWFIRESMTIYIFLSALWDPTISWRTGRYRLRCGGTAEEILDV
Format: biochemical
Method: In enzyme assay, a microsome fraction obtained by transient expression by Expi293F™ cells (catalog number: A14527, Thermo Fisher Scientific) was used as a glucosylceramide synthase source. Liposomal C8 ceramide and UDP-glucose were used as substrates. For each substrate concentration, 1.7 μM UDP-glucose, which is equal to the Km value, and 3 μM C8 ceramide were used. After the enzymatic reaction, the analysis was performed with Rapidfire MS/MS (API-4000™, SCIEX), and C8 glucosylceramide was quantified to evaluate the inhibitory activity of the test compound against glucosylceramide synthase activity.
PcDNA3.3TOPO vector (catalog number: K830001, Thermo Fisher Scientific) into which the human GCS gene was inserted was introduced into Expi293F™ Cells (catalog number: A14527, Thermo Fisher Scientific) by using ExpiFectamine™ 293 Transfection Kit (catalog number: A14525, Thermo Fisher Scientific). The cultured cells were dissolved in D-PBS (catalog number: 048-29805, Fuji Film Wako Pure Chemical Industries, Ltd.) containing 1 mM PMSF, and the solution was allowed to stand on ice for 30 minutes, and then subjected to cell disruption (homogenized). The disruption solution was centrifuged at 10,000×g for 20 minutes at 4° C., and the obtained supernatant was centrifuged at 142,400×g for 60 minutes at 4° C. The obtained precipitate was resuspended in a D-PBS solution containing 1 mM PMSF, and homogenized again to prepare as a microsome fraction. Protein quantification was performed by the CBB method.
A 1 mM compound solution prepared by dissolving the test compound in DMSO was added to a 384-well plate by 100 nL so that the final concentration of the test compound was 10 μM. Next, a substrate solution consisting of 3.4 μM UDP-glucose and 6 μM C8 ceramide was added by 5 μL, followed by an enzyme solution consisting of a 25 μg/mL microsome fraction by 5 μL. C8 ceramide was prepared from liposomes composed of 15 mol % C8 ceramide and 85 mol % dioleoyl phosphatidylcholine (1,2-dioleoyl-sn-glycero-3-phosphocholine: DOPC). The enzymatic reaction was carried out in a solution consisting of 20 mM tris-hydrochloric acid buffer (pH 7.5), 0.01% Tween 20, 0.01% bovine serum albumin and 1 mM dithiothreitol at room temperature for 60 min. Then, a solution consisting of 75% isopropanol and 1% formic acid containing 0.25 μM N-Octadecanoyl-D35-psichosine (catalog number: 1914, Matreya) as an internal standard substance was added by 60 μL to stop the enzymatic reaction. 5 μL of the centrifugal supernatant of the obtained reaction product was analyzed by Rapidfire MS/MS (Agilent Technologies) using API-4000™ (SCIEX), and the C8 glucosylceramide was quantified to evaluate the inhibitory activity of the test compound against the glucosylceramide synthase activity. The inhibitory activity of the test compound was evaluated when the C8 glucosylceramide level in the enzyme-free solution was considered as 100% inhibitory and the enzyme activity of the DMSO group in the absence of the compound was considered as 0% inhibitory.

inhibition at 10 µM | Structure (SMILES)
88% | O=C(Nc1ccn(CC2CC2(F)F)n1)c1cccn(-c2ccc(F)cc2OCC(F)(F)F)c1=O (racemic) [Example 55, rac-N-{1-[(2,2-difluorocyclopropyl)methyl]-1H-pyrazol-3-yl}-1-[4-fluoro-2-(2,2,2-trifluoroethoxy)phenyl]-2-oxo-1,2-dihydropyridine-3-carboxamide]
96% | O=C(Nc1ccc(C(O)C2CC2)nc1)c1cccn(-c2ccc(F)cc2OCC(F)(F)F)c1=O (racemic) [Example 75, rac-N-{6-[cyclopropyl(hydroxy)methyl]pyridin-3-yl}-1-[4-fluoro-2-(2,2,2-trifluoroethoxy)phenyl]-2-oxo-1,2-dihydropyridine-3-carboxamide]
98% | O=C(Nc1ccc(C(O)C2CC2)nc1)c1cccn(-c2ccccc2OCC(F)(F)F)c1=O (racemic) [Example 76, rac-N-{6-[cyclopropyl(hydroxy)methyl]pyridin-3-yl}-2-oxo-1-[2-(2,2,2-trifluproethoxy)phenyl]-1,2-dihydropyridine-3-carboxamide]
90% | CC(O)(c1ccc(NC(=O)c2cccn(-c3ccnnc3OCC(F)(F)F)c2=O)cn1)C(F)(F)F (racemic) [Example 121, rac-2-oxo-1-[3-(2,2,2-trifluoroethoxy)pyridazin-4-yl]-N-[6-(1,1,1-trifluoro-2-hydroxypropan-2-yl)pyridin-3-yl]-1,2-dihydropyridine-3-carboxamide]
99% | CC(O)c1ccc(NC(=O)c2ccnn(-c3ccccc3OCC(F)(F)F)c2=O)cc1 (racemic) [Example 138, rac-N-[4-(1-hydroxyethyl)phenyl]-3-oxo-2-[2-(2,2,2-trifluoroethoxy)phenyl]-2,3-dihydropyridazine-4-carboxamide]
99% | Cc1cc(C(=O)Nc2ccc(C(C)O)cc2)c(=O)n(-c2ccccc2OCC(F)F)n1 (racemic) [Example 139, rac-2-[2-(2,2-difluoroethoxy)phenyl]-N-[4-(1-hydroxyethyl)phenyl]-6-methyl-3-oxo-2,3-dihydropyridazine-4-carboxamide]
87% | CC(O)c1ccc(NC(=O)c2ccnn(-c3ccccc3OCC(F)(F)F)c2=O)nc1 (racemic) [Example 140, rac-N-[5-(1-hydroxyethyl)pyridin-2-yl]-3-oxo-2-[2-(2,2,2-trifluoroethoxy)phenyl]-2,3-dihydropyridazine-4-carboxamide]
100% | O=C(Nc1ccc(C2CCCO2)cc1)c1ccnn(-c2ccccc2OCC(F)F)c1=O (racemic) [Example 144, rac-2-[2-(2,2-difluoroethoxy)phenyl]-3-oxo-N-[4-(oxolan-2-yl)phenyl]-2,3-dihydropyridazine-4-carboxamide]
99% | O=C(Nc1ccc(C2CCOC2)cc1)c1ccnn(-c2ccccc2OCC(F)F)c1=O (racemic) [Example 145, rac-2-[2-(2,2-difluoroethoxy)phenyl]-3-oxo-N-[4-(oxolan-3-yl)phenyl]-2,3-dihydropyridazine-4-carboxamide]
99% | CC(C)(O)c1ccc(NC(=O)c2cn(C3CCOC3)nc(-c3ccccc3OCC(F)F)c2=O)cc1 (racemic) [Example 193, rac-6-[2-(2,2-difluoroethoxy)phenyl]-N-[4-(2-hydroxypropan-2-yl)phenyl]-5-oxo-2-(oxolan-3-yl)-2,5-dihydropyridazine-4-carboxamide]
100% | O=C(Nc1ccc(C(O)(C(F)F)C(F)F)nc1)c1cn(C2CCOC2)nc(-c2ccccc2OCC(F)F)c1=O (racemic) [Example 195, rac-6-[2-(2,2-difluoroethoxy)phenyl]-5-oxo-2-(oxolan-3-yl)-N-[6-(1,1,3,3-tetrafluoro-2-hydroxypropan-2-yl)pyridin-3-yl]-2,5-dihydropyridazine-4-carboxamide]
